Values of other authors as cited in US7456141B2, “Photo resist stripper composition” (Echem Solutions Corp., priority 2004, dated 2008).
Like-named read-outs stand apart in the source and are kept apart here.

Assays:
[1] = Table 3, route and species not given; in mg/kg
[2] = Table 3
[3] = for Flash Point / Ignition Point / Vaporizing Speed: Table 2; for Steam Pressure: at 20 ° C. (mmHg/° C. [sic])
[4] = for STEL: Short Time Exposure Limit, 15 minutes; for TWA: Time Weighted Average, eight hours a day and 40 hours a week
Rat [5] = system: Rat
Rat [6] = system: Rat; remark: listed apart in the source
Rat [7] = system: Rat; remark: listed apart in the source

Row | Compound | LD50 [1] | Flash Point [2] | Vaporizing Point [2] | Viscosity [2] | LC50/Inhale/Mouse (Mouse) | Flash Point [3] | Ignition Point [3] | Vaporizing Speed [3] | Steam Pressure [3] | STEL [4] | TWA [4] | LC50/Inhale/Rat (Rat [5]; exposure time not given) | LD50/Hypodermic/Rabbit (Rabbit) | LD50/Hypodermic/Rat (Rat [6]; hypodermic) | LC50/Inhale/Rat (Rat [5]; 7 hrs.) | LD50/Oral/Rat (Rat [7]) | LD50/Hypodermic/Rat (Rat [6]; in vivo) | LC50/Inhale/Rat (Rat [5]; 6 hrs.) | LC50/Inhale/Rat (Rat [5]; 4 hrs.)
1 | O=C1CCCCC1 [ANONE, cyclohexanone] | 1535 | 44 °C | 4 °C | 2.2 cst | – | – | – | – | – | – | – | – | – | – | – | – | – | – | –
2 | CC(=O)OCCC(C)C [IAAc, Isoamyl acetate] | 16600 | 25 °C | 4 °C | – | – | – | – | – | – | – | – | – | – | – | – | – | – | – | –
3 | CC(=O)CC(C)C [MIBK, Methyl isobutyl ketone] | – | – | – | – | LC50/Inhale/Mouse: 23300 mg/m^3 | 18 °C | 449 °C | 1.57 | 16/20 mmHg | 75 ppm | 50 ppm | LC50/Inhale/Rat: 4000 ppm | LD50/Hypodermic/Rabbit: 20 mg/kg | – | – | – | – | – | –
4 | COCC(C)O (centres unmarked) [PGME, propylene glycol mono-methyl ether] | 6600 | 32 °C | 11.8 °C | 1.8 cst | – | 32 °C | – | 0.66 | 6.7/20 mmHg | – | 100 ppm | – | – | LD50/Hypodermic/Rat: 13000 mg/kg | LC50/Inhale/Rat: 15000 ppm (7 hrs.) | LD50/Oral/Rat: 6600 mg/kg | – | – | –
5 | COCC(C)OC(C)=O (centres unmarked) [PGMEA, Propylene glycol mono-methyl ether acetate] | 8532 | 47 °C | 3.8 °C | 1.1 cst | – | 42 °C | 354 °C | 0.34 | 3.8/20 mmHg | – | 100 ppm | – | – | – | – | LD50/Oral/Rat: 8532 mg/kg | LD50/Hypodermic/Rat: 5000 mg/kg | LC50/Inhale/Rat: 4345 ppm (6 hrs.) | –
6 | CCCCOC(C)=O [nBAc, n-Butyl Acetate] | 13100 | 22 °C | 15 °C | 0.7 cst | – | 22 °C | 425 °C | 0.98 | 7.8/20 mmHg | 200 ppm | 150 ppm | – | – | – | – | – | – | – | LC50/Inhale/Rat: 2000 ppm (4 hrs.)
